Test [1] concerns the target T1, West Nile Virus (WNV) NS2B-NS3 protease (West Nile virus, UniProt Q9Q6P4).
T1 construct: NS2B1423-1470); purchased R&D 2907-SE-020
Description: WNV protease inhibition assay. It counts as biochemical. Particulars: Table 4; letter codes for IC50. The text has this:
WNV protease inhibition assay

The test system of another test is ZIKV replicon. As to the kind of experiment: ZIKV replication inhibition assay (NanoLuc replicon in Vero cells). The following applies: Zika virus, Vero, 72 h.
Setting [2] is: read-out: ZIKA Cell_Nanoluc, Vero cells with stable ZIKV replicon, 72 h, Nano-Glo readout.

The structures appear in SMILES notation. Like-named read-outs stand apart in the source and are kept apart here.

T1 sequence (Q9Q6P4 1423-1470): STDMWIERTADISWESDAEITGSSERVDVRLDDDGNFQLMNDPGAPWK
T1 sequence (Q9Q6P4 1506-1689): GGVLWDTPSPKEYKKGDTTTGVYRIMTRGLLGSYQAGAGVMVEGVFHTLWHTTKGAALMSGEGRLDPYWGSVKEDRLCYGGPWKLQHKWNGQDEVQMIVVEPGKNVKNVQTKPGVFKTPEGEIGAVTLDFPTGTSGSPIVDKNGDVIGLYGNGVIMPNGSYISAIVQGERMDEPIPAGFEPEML

In turn, `CNC(=O)[C@H]1CCC[C@@H]([n+]2cc([N-]C(=O)Nc3cc(NC(=O)Cc4ccccc4C)cc(C(F)(F)F)c3)on2)C1` [Example 232, (3-((1R,3S)-3-(Methylcarbamoyl)cyclohexyl)-1,2,3-oxadiazol-3-ium-5-yl)((3-(2-(o-tolyl)acetamido)-5-(trifluoromethyl)phenyl)-carbamoyl)amide] gave an IC50 in test [1] of 100 to 1000 nM. Also, the EC50 with ZIKV replicon (setting [2]) is 1000 to 20000 nM.

In test [1], `COC(=O)[C@H]1CC[C@H]([n+]2cc([N-]C(=O)Nc3cc(NC(=O)Cc4ccccc4C)cc(C(F)(F)F)c3)on2)CC1` [Example 227, (3-((1R,4R)-4-(Methoxycarbonyl)cyclohexyl)-1,2,3-oxadiazol-3-ium-5-yl)((3-(2-(o-tolyl)-acetamido)-5-(trifluoromethyl)phenyl)carbamoyl) amide] gave an IC50 of less than 100 nM. For the same compound, the EC50 in the test on ZIKV replicon (read-out: ZIKA Cell_Nanoluc) is 1000 to 20000 nM.

Consider `Cc1ncncc1[C@H]1CC[C@H](C[n+]2cc([N-]C(=O)Nc3ccnc(C(F)(F)F)c3)on2)CC1` [Example 241, (3-(((1R,4S)-4-(4-Methylpyrimidin-5-yl)cyclohexyl)methyl)-1,2,3-oxadiazol-3-ium-5-yl)((2-(trifluoromethyl)pyridin-4-yl)carbamoyl)-amide], for which the IC50 in test [1] is less than 100 nM. For the same compound, the EC50 with ZIKV replicon (read-out: ZIKA Cell_Nanoluc) lay in the range of 100 to 1000 nM.

As to `Cc1ccccc1CC(=O)Nc1cc(NC(=O)[N-]c2c[n+]([C@H]3CC[C@H](N(C)C)CC3)no2)cc(C(F)(F)F)c1` [Example 257, (3-((1R,4R)-4-(Dimethylamino)cyclohexyl)-1,2,3-oxadiazol-3-ium-5-yl)((3-(2-(o-tolyl)-acetamido)-5-(trifluoromethyl)phenyl)-carbamoyl)amide], in test [1], the IC50 was less than 100 nM. For the same compound, the EC50 in the test on ZIKV replicon (read-out: ZIKA Cell_Nanoluc) is 1000 to 20000 nM.

In turn, `Cc1ncccc1-c1ccc(C[n+]2cc([N-]C(=O)Nc3ccnc(C(F)(F)F)c3)on2)cc1` [Example 258, (3-(4-(2-Methylpyridin-3-yl)benzyl)-1,2,3-oxadiazol-3-ium-5-yl)((2-(trifluoromethyl)pyridin-4-yl)carbamoyl)amide] displayed an IC50 in test [1] of less than 100 nM. The EC50 in the test on ZIKV replicon (setting [2]) is less than 100 nM.

Turning to `Cc1ccccc1CC(=O)Nc1cc(NC(=O)[N-]c2c[n+]([C@@H]3CCCC[C@@H]3N(C)C)no2)cc(C(F)(F)F)c1` (racemic) [Example 244, rac-(3-((1R,2S)-2-(Dimethylamino)cyclohexyl)-1,2,3-oxadiazol-3-ium-5-yl)((3-(2-(o-tolyl)acetamido)-5-(trifluoromethyl)phenyl)-carbamoyl)amide], the IC50 in test [1] lay in the range of 100 to 1000 nM. Moreover, the EC50 in the test on ZIKV replicon (setting [2]) lay in the range of 1000 to 20000 nM.

`CN(C)C[C@H]1CC[C@H]([n+]2cc([N-]C(=O)Nc3cc(NC(=O)Cc4ccccc4Cl)nc(C(F)(F)F)c3)on2)CC1` [Example 193, ((2-(2-(2-Chlorophenyl)acetamido)-6-(trifluoromethyl)pyridin-4-yl)carbamoyl)(3-((1R,4R)-4-((dimethylamino)methyl)-cyclohexyl)-1,2,3-oxadiazol-3-ium-5-yl)amide] registered an IC50 in test [1] of 1000 to 20000 nM. The EC50 in the test on ZIKV replicon (read-out: ZIKA Cell_Nanoluc) fell in the range of 100 to 1000 nM.

Regarding `O=C([N-]c1c[n+](CC23CC(c4cncnc4)(C2)C3)no1)Nc1cccc(C(F)(F)F)c1` [Example 183, (3-((3-(Pyrimidin-5-yl)bicyclo[1.1.1]pentan-1-yl)methyl)-1,2,3-oxadiazol-3-ium-5-yl)((3-(trifluoromethyl)phenyl)carbamoyl)amide], in test [1], the IC50 is 100 to 1000 nM. Besides, the EC50 in the test with ZIKV replicon (setting [2]) is 100 to 1000 nM.

In turn, `Cc1cnn(C2COC2)c1-c1ccc(C[n+]2cc([N-]C(=O)Nc3ccnc(C(F)(F)F)c3)on2)cc1` [Example 239, (3-((4-(4-Methyl-2-(oxetan-3-yl)pyrazol-3-yl]phenyl)methyl)oxadiazol-3-ium-5-yl)-((2-(trifluoromethyl)pyridin-4-yl)carbamoyl)-azanide] had a concentration for half-maximal inhibition (IC50) in test [1] of less than 100 nM. The EC50 in the test on ZIKV replicon (read-out: ZIKA Cell_Nanoluc) was less than 100 nM.

One may read the IC50 as the midpoint of a concentration-inhibition curve. A higher IC50 goes with a need for much substance.

These data come from patent publication EP4563146A1 (IRBM S.P.A., priority 2023, dated 2025).
